Assay results as given in ChEMBL document CHEMBL3297697, “Property- and structure-guided discovery of a tetrahydroindazole series of interleukin-2 inducible T-cell kinase inhibitors” (J Med Chem, 2014).
In brackets after ≈: the same amount, converted by molar mass.

Assays:
Aurora kinase A = target: T1, Aurora kinase A (Homo sapiens, UniProt O14965)
T1 sequence (O14965 whole entry): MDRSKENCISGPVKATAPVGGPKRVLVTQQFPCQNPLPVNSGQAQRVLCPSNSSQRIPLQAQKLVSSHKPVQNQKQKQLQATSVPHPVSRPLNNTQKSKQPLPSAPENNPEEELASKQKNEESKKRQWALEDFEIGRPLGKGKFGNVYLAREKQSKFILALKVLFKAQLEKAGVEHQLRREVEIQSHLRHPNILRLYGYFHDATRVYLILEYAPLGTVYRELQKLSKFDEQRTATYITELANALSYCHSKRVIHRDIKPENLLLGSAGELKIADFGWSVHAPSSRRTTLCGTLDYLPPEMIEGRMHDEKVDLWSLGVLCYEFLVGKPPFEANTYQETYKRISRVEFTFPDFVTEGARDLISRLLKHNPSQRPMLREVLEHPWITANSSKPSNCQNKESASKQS

physchem [1] = details: PBS buffer, pH 7.4, Kinetic_solubility
physchem [2] = details: 1-octanol/phosphate buffer, pH 7.4, logD
[3] = Apparent permeability across MDCK cells; format: ADME, cell-based, Canis lupus familiaris; details: dog
[4] = target: T2, Tyrosine-protein kinase ITK/TSK (Homo sapiens, UniProt Q08881)
T2 sequence (Q08881 whole entry): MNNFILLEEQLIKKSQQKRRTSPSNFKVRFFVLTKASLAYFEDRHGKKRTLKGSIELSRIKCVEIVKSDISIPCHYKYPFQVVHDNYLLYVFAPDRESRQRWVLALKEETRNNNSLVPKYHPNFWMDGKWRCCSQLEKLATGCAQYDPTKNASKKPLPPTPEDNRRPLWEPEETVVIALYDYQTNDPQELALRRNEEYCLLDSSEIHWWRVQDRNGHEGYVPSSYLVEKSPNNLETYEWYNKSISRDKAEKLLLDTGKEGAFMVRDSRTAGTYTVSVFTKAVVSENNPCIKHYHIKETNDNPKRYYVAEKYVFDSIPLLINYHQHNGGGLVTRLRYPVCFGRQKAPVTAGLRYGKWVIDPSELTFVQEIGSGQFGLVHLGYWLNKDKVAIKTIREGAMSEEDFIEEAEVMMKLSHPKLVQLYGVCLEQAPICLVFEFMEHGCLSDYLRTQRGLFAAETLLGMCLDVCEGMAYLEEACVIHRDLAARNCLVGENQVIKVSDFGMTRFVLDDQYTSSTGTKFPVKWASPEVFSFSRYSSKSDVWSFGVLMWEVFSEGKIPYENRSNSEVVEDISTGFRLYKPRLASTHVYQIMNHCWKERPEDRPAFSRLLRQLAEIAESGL

[5] = target: T2, Tyrosine-protein kinase ITK/TSK; remark: listed apart in the source
[6] = octanol/water, pH 7.4, 20 min, 10000 µM
Homo sapiens = species on record: Homo sapiens; assay: Selectivity ratio of Ki for human His-tagged full length AURKAto Ki for GST-tagged full length ITK (unknown origin)
[7] = buffer, pH 7.4, 24 h, 10000 µM
[8] = Plasma protein binding in human; format: ADME, cell-free; details: read-out: PPB (converted)

SMILES	Ki (Aurora kinase A)	solubility kinetic at 24 h, 10000 µM (physchem [1])	logD at 20 min, 10000 µM (physchem [2])	further results
CC1(C)CCc2[nH]nc(C(=O)Nc3cnn(Cc4ccccc4)c3)c2C1	1700 nM	< 1 µM	4.3	–
CC1(C)CCc2c(C(=O)Nc3cnn([C@H](c4ccccc4)C4CCNCC4)c3)n[nH]c2C1	19 nM	102 µM (≈ 44.1 µg/mL)	1.3	Papp [3]: 0.1 ×10⁻⁶ cm/s
N#Cc1cccc(Cn2cc(NC(=O)c3n[nH]c4c3CC(c3cn[nH]c3)CC4)cn2)c1 (racemic) [listing 1 of 2 here]	210 nM	< 1 µM	–	Ki [4]: 8.3 nM; IC50 [5]: 1700 nM; logD [6]: 2.5
CN(C)CC[C@H](c1ccccc1)n1cc(NC(=O)c2n[nH]c3c2CCC(C)(C)C3)cn1	–	49 µM (≈ 20.6 µg/mL)	2	–
CC1CCc2c(C(=O)Nc3cnn(Cc4ccccc4)c3)n[nH]c2C1 (centres undefined)	520 nM	–	–	–
N#Cc1cccc(Cn2cc(NC(=O)c3n[nH]c4c3CC(c3cn[nH]c3)CC4)cn2)c1 (racemic) [listing 2 of 2 here]	–	–	–	Ratio Ki (Homo sapiens): 25
O=C(Nc1cnn(Cc2ccccc2)c1)c1n[nH]c2c1CCC1(CCOC1)C2 (centres undefined)	–	–	–	Kinetic_solubility [7]: 60 µM
O=C(Nc1cnn(Cc2ccccc2)c1)c1n[nH]c2c1CCC1(CC1)C2	180 nM	< 1 µM	3.9	–
O=C(Nc1cnn(Cc2ccccc2)c1)c1n[nH]c2c1CCC1(CCOC1)C2 (racemic)	> 5700 nM	–	2.2	Kinetic_solubility [7]: 20 µM
CC12Cc3[nH]nc(C(=O)Nc4cnn(Cc5ccccc5)c4)c3CC1C2 (racemic)	440 nM	1.3 µM (≈ 0.452 µg/mL)	3.8	–
Cc1cccc([C@H](CCN(C)C)n2cc(NC(=O)c3n[nH]c4c3CCC(C)(C)C4)cn2)c1	500 nM	72 µM (≈ 31.3 µg/mL)	2.4	Papp [3]: 4.3 ×10⁻⁶ cm/s
N#Cc1cccc(Cn2cc(NC(=O)c3n[nH]c4cc(-c5cn[nH]c5)ccc34)cn2)c1	–	< 1 µM	3.4	Papp [3]: 0.1 ×10⁻⁶ cm/s
CC1(CO)CCc2c(C(=O)Nc3cnn(Cc4ccccc4)c3)n[nH]c2C1 (racemic)	2300 nM	77 µM (≈ 28.1 µg/mL)	2.6	–
O=C(Nc1cnn(Cc2ccccc2)c1)c1n[nH]c2c1CC1CC1C2 (centres undefined)	870 nM	–	2	Kinetic_solubility [7]: 18 µM
CC1(C)CCc2c(C(=O)Nc3cnn(Cc4ccccc4)c3)n[nH]c2C1	480 nM	< 1 µM	4.3	Papp [3]: 7.6 ×10⁻⁶ cm/s
N#Cc1cccc(Cn2cc(NC(=O)c3n[nH]c4c3CC(c3cn[nH]c3)CC4)cn2)c1 (centres undefined) [listing 1 of 2 here]	–	–	–	Ratio Ki (Homo sapiens): 23

SMILES	Ki (Aurora kinase A)	solubility kinetic at 24 h, 10000 µM (physchem [1])	logD at 20 min, 10000 µM (physchem [2])	further results
N#Cc1cccc(Cn2cc(NC(=O)c3n[nH]c4c3CC(c3cn[nH]c3)CC4)cn2)c1 (centres undefined) [listing 2 of 2 here]	220 nM	–	2.4	Ki [4]: 9.4 nM; IC50 [5]: 2200 nM
COC1(C)CCc2c(C(=O)Nc3cnn(Cc4ccccc4)c3)n[nH]c2C1 (racemic)	–	–	2.2	Kinetic_solubility [7]: 77 µM
O=C(Nc1cnn(Cc2ccccc2)c1)c1n[nH]c2c1CCC1(COC1)C2	2900 nM	78 µM (≈ 28.3 µg/mL)	2.4	–
CN(C)C[C@@H](c1ccccc1)n1cc(NC(=O)c2n[nH]c3c2CCC(C)(C)C3)cn1	210 nM	42 µM (≈ 17.1 µg/mL)	2.7	Papp [3]: 8.1 ×10⁻⁶ cm/s
O=C(Nc1cnn(Cc2ccccc2)c1)c1n[nH]c2c1CC1CC1C2 (racemic)	2000 nM	13 µM (≈ 4.33 µg/mL)	–	logD [6]: 2.5
CN(C)CC[C@@H](c1ccccc1)n1cc(NC(=O)c2n[nH]c3cc(-c4cn[nH]c4)ccc23)cn1	15 nM	94 µM (≈ 42.7 µg/mL)	–	fraction unbound [8]: 0.03
O=C(Nc1cnn(Cc2ccccc2)c1)c1n[nH]c2c1CCC(F)(F)C2	950 nM	< 1 µM	3.8	–
N#Cc1cccc(Cn2cc(NC(=O)c3n[nH]c4ccccc34)cn2)c1	870 nM	5.8 µM (≈ 1.99 µg/mL)	3	Ki [4]: 43 nM; Ratio Ki (Homo sapiens): 20
CC1(CO)CCc2c(C(=O)Nc3cnn(Cc4ccccc4)c3)n[nH]c2C1 (centres undefined)	200 nM	–	–	Kinetic_solubility [7]: 83 µM; logD [6]: 2.7
CC1CCc2c(C(=O)Nc3cnn(Cc4ccccc4)c3)n[nH]c2C1 (racemic)	1100 nM	< 1 µM	4	–
N#Cc1cccc(Cn2cc(NC(=O)c3n[nH]c4c3CCCC4)cn2)c1	780 nM	14 µM (≈ 4.85 µg/mL)	2.6	Ratio Ki (Homo sapiens): 26
CC12Cc3[nH]nc(C(=O)Nc4cnn(Cc5ccccc5)c4)c3CC1C2 (centres undefined)	54 nM	–	–	Kinetic_solubility [7]: 1.6 µM
CC1(C)CCc2c(C(=O)Nc3cnn([C@@H](CCS(C)(=O)=O)c4ccccc4)c3)n[nH]c2C1	2100 nM	14 µM (≈ 6.38 µg/mL)	2.5	Ki [4]: 6.2 nM; Papp [3]: 3.2 ×10⁻⁶ cm/s; IC50 [5]: 310 nM; Ratio Ki (Homo sapiens): 340
COC1(C)CCc2c(C(=O)Nc3cnn(Cc4ccccc4)c3)n[nH]c2C1 (centres undefined)	–	–	–	Kinetic_solubility [7]: 29 µM
CN(C)CC[C@@H](c1cccc(Cl)c1)n1cc(NC(=O)c2n[nH]c3c2CCC(C)(C)C3)cn1	290 nM	25 µM (≈ 11.4 µg/mL)	2.7	–
